Experiment: isothermal nanotitration calorimetry, interaction with beta-cyclodextrin
Type: physicochemical
Conditions: for strength of interaction with beta-cyclodextrin: adimensional values
Source text: In adimensional values: 1000×10^6 and 737×10^6, respectively (Table 6). [table]

Row | strength of interaction with beta-cyclodextrin | interaction with beta-cyclodextrin relative to interaction of sodium lauryl sulfate with beta-cyclodextrin (calorimetric analyses) | Compound
1 | 1000×10^6 | about 1000 times | N=C(NCCCCCCNC(=N)NC(=N)Nc1ccc(Cl)cc1)NC(=N)Nc1ccc(Cl)cc1 [chlorhexidine digluconate, 1,1′-hexamethylene bis(5-(p-chlorophenyl)biguanide)]
2 | 737×10^6 | – | CCCCCCCCCCCCOS(=O)(=O)[O-].[Na+] [sodium lauryl sulfate]

Source: patent US20250195445A1, “LONG-LASTING ANTIMICROBIAL COMPOSITIONS CONTAINING CATIONIC ACTIVE AGENTS AND ANIONIC EXCIPIENTS AND USES” (priority 2022, published 2025)
